Experimental data from patent US20040110265A1, “Recovery of enzyme activity from enveloped viruses” (priority 2001, published 2004).

What was measured:
[1] = target: Recombinant wild type HIV 1 RT (Human immunodeficiency virus type 1 group M subtype B, UniProt P04585); settings: in foetal calf serum, 60 minutes at 22° C.
Procedure: (§1) Recombinant wild type HIV 1 RT (▪), Recombinant RT from a Nevirapine resistant HIV 1 mutant (Y181C) (⋄), Jaagsiekte virus (JSV) RT from a sheep lung cancer (▾), […] (FIV) RT (∘), Bovine Leukaemia virus (BLV) RT (♦) and Porcine Endogenous Retrovirus (PERV) RT (●)derived from cell culture were dilute in heat inactivated foetal calf serum. The different virus enzyme preparations and an EDTA plasma sample from a healthy blood donor (□) were incubated with indicated thimerosal concentration at room temperature (22° C.) for 60 minutes. All the samples were diluted 100 fold in an RT assay compatible buffer and the residual RT activity in each sample was then determined. Three RT assays, each adapted to the type of RT measured were used: HIV 1, JSV, and FIV RTs were measured with Cavidi® HS kit Lenti RT BLV RT with Cavidi® HS kit HTLV RT and PERV and human plasma RT with Cavidi® HS kit Mn^2+ RT.

[2] = target: Recombinant RT from a Nevirapine resistant HIV 1 mutant (Y181C) (Human immunodeficiency virus type 1 group M subtype B, UniProt P04585, Y768C); settings: in foetal calf serum, 60 minutes at 22° C.
Procedure: as §1

[3] = tested on: FIV RT; settings: in foetal calf serum, 60 minutes at 22° C.
Procedure: as §1

[4] = target: Jaagsiekte virus (JSV) RT (Sheep pulmonary adenomatosis virus, UniProt P31623); settings: in foetal calf serum, 60 minutes at 22° C.
Procedure: as §1

[5] = tested on: human plasma polymerase; assay: Resurrection of plasma polymerase activity after treatment with cysteine-modifying agents; type: biochemical
Procedure: A set of human plasma samples (60% plasma in water) was first incubated with 3 mM of indicated cysteine-modifying substance or water (as control) at room temperature for 1 hour. Serial dilutions of five potentially reactivating substances were then added and the samples were incubated for another hour. Each sample was finally diluted 1:20 and residual RT activity was determined with Cavidi® HS kit Lenti RT. The total reduction in substance concentration between sample incubation and RT assay was 200 times. The RT activities recovered were recalculated into percent of the activity of a control consisting of plasma incubated in absence of additions during both incubation steps.

[6] = tested on: human plasma RT; assay: Selective destruction of endogenous RT activity in plasma, protocol I; type: biochemical; settings: EDTA plasma with disrupted lymphocytes, 1 hour at room temperature
Procedure: EDTA plasma with disrupted lymphocytes from a healthy blood donor and FIV diluted in inactivated foetal calf serum (totally devoid of plasma RT activity) were incubated for 1 hour at room temperature with indicated concentration of: A) 5,5′-dithiobis-(2-nitrobensoic acid), B) thimerosal. The samples were separated according to “Protocol for determination of retroviral RT from material which contains RT blocking antibodies”. The RT activities recovered were determined with an RT assay (Cavidi HS-kit Lenti RT).

Chain of Jaagsiekte virus (JSV) RT (P31623 866-1446 limits assumed): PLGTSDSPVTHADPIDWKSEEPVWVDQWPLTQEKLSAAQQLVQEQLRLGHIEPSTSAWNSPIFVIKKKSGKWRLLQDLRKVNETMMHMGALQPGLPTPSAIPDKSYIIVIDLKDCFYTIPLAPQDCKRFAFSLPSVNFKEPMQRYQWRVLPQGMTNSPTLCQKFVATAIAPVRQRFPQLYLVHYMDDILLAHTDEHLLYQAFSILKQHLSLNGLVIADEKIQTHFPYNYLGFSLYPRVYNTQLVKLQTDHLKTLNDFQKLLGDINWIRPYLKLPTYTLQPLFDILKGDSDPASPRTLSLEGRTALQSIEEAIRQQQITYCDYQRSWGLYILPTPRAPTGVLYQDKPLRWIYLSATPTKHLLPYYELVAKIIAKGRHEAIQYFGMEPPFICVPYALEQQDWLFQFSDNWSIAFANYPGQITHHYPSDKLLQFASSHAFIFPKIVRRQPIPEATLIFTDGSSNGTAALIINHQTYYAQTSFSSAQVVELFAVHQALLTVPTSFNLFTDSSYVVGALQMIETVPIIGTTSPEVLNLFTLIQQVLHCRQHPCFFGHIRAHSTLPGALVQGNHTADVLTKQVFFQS

C[CH2][Hg][S]c1ccccc1C(=O)[O-].[Na+] [Thimerosal]
Sensitivity of enzyme to thimerosal treatment [1]: totally resistant
Sensitivity of enzyme to thimerosal treatment [2]: most sensitive
Sensitivity of enzyme to thimerosal treatment [3]: most sensitive
Sensitivity of enzyme to thimerosal treatment [4]: totally resistant
Conditions required to reactivate polymerase activity treated with the agent ([5]; 3 mM agent, then reactivating substances): quite easily reactivated
Polymerase activity after second incubation with DTT (% of control) ([5]; 3 mM destroying agent first, 1.1 mM DTT): 84%
Polymerase activity after second incubation with MSA (% of control) ([5]; 3 mM destroying agent first, 1.1 mM MSA): 17%
Polymerase activity after second incubation with cysteamine (% of control) ([5]; 3 mM destroying agent first, 1.1 mM cysteamine): 0%
Polymerase activity after second incubation with cysteine (% of control) ([5]; 3 mM destroying agent first, 1.1 mM cysteine): 4%
Polymerase activity after second incubation with glutathione (% of control) ([5]; 3 mM destroying agent first, 1.1 mM glutathione): 12%
Polymerase activity after second incubation with DTT (% of control) ([5]; 3 mM destroying agent first, 3.3 mM DTT): 248%
Polymerase activity after second incubation with MSA (% of control) ([5]; 3 mM destroying agent first, 3.3 mM MSA): 19%
Polymerase activity after second incubation with cysteamine (% of control) ([5]; 3 mM destroying agent first, 3.3 mM cysteamine): 0%
Polymerase activity after second incubation with cysteine (% of control) ([5]; 3 mM destroying agent first, 3.3 mM cysteine): 14%
Polymerase activity after second incubation with glutathione (% of control) ([5]; 3 mM destroying agent first, 3.3 mM glutathione): 21%
Polymerase activity after second incubation with DTT (% of control) ([5]; 3 mM destroying agent first, 10 mM DTT): 377%
Polymerase activity after second incubation with MSA (% of control) ([5]; 3 mM destroying agent first, 10 mM MSA): 7.3%
Polymerase activity after second incubation with cysteamine (% of control) ([5]; 3 mM destroying agent first, 10 mM cysteamine): 2%
Polymerase activity after second incubation with cysteine (% of control) ([5]; 3 mM destroying agent first, 10 mM cysteine): 37%
Polymerase activity after second incubation with glutathione (% of control) ([5]; 3 mM destroying agent first, 10 mM glutathione): 37%
Polymerase activity after second incubation with DTT (% of control) ([5]; 3 mM destroying agent first, 30 mM DTT): 448%
Polymerase activity after second incubation with MSA (% of control) ([5]; 3 mM destroying agent first, 30 mM MSA): 3.4%
Polymerase activity after second incubation with cysteamine (% of control) ([5]; 3 mM destroying agent first, 30 mM cysteamine): 1%
Polymerase activity after second incubation with cysteine (% of control) ([5]; 3 mM destroying agent first, 30 mM cysteine): 68%
Polymerase activity after second incubation with glutathione (% of control) ([5]; 3 mM destroying agent first, 30 mM glutathione): 7%
Polymerase activity after second incubation with water (% of control) ([5]; 3 mM destroying agent first, water in second incubation): 0%
Concentration that totally eliminated the human plasma RT activity [6]: > 3 mM
